According to patent EP0323416A2, “Phenylbenzylidene derivatives of 3-aminopropanesulfonic acid having anticonvulsant activity and pharmaceutical compositions containing same for the therapeutical treatment of epilepsy” (Sigma-Tau Industrie Farmaceutiche Riunite S.p.A., priority 1987, dated 1989):
Marks after values point to notes of the source that are not given here.

What was measured:
auricular electroshock = assay: Auricular electroshock (maximal electroshock death); type: in vivo, Male albino Swiss mice; conditions: oral in gum arabic 60 minutes before the electroshock, 10 mice
Experimental: Male albino Swiss mice weighing 22-24 g were used in this test. The electroshock conditions were the shock duration: 3 seconds; frequence: 100; pulse amplitude: 0.6 milliseconds, current intensity: 40 milliamperes. The compounds ST 505 and ST 512 suspended in gum arabic were orally administered 60 minutes before the electroshock.
The tests results which illustrate the number of animal preserved from death provoked by maximal electroshock are shown in the following Table 4.

male albino Swiss mice = assay: Tolerability test, oral; type: in vivo; conditions: suspension in 10% gum arabic, dose of 3 g/kg, mice fasting for 18 hours
Experimental: The tolerability test was carried out on male albino Swiss mice weighing 22-24 g. The animals, which had been kept fasting for 18 hours, were orally administered a suspension in 10% gum arabic of the compounds ST 505 and ST 512.

[1] = system: picrotoxin-induced convulsions; assay: Picrotoxin-induced convulsions test in mice; type: in vivo, male albino Swiss (Charles River) mice
Experimental: (§1) The doses of cardiazol, strychinine, bicuculline and picrotoxin (100 mg/10 ml/kg i.p., 0.73 mg/10 ml/kg s.c., 2.38 mg/10 ml/kg s.c. and 4.42 mg/10 ml/kg s.c. respectively) were chosen in such a way as to provoke death of 50% of the control animals.
(§2) The tests were carried out in male albino Swiss (Charles River) mice weighing 22-24 g which had been kept fasting for 18 hours.
(§3) 100/0 gum arabic suspensions of the compounds under examination were orally administered 60 minutes before the convulsant agent administration.
(§4) As reference substance, 3-APS (200-400-800 mg/10 ml/kg i.p.) was used.

[2] = system: strychnine-induced convulsions; assay: Strychnine-induced convulsions test in mice; type: in vivo, male albino Swiss (Charles River) mice
Experimental: as §1, §2, §3, §4

[3] = system: cardiazol-induced convulsions; assay: Cardiazol-induced convulsions test in mice; type: in vivo, male albino Swiss (Charles River) mice
Experimental: as §1, §2, §3, §4

[4] = system: bicuculline-induced convulsions; assay: Bicuculline-induced convulsions test in mice; type: in vivo, male albino Swiss (Charles River) mice
Experimental: as §1, §2, §3, §4

FeCl3-induced epilepsy = FeCl3-induced epilepsy model (EEG); type: in vivo, Male albino Wistar rats; conditions: 500 mg/kg oral 45 minutes following FeCl3 injection; Mann-Whitney's U test, P<0.05
Experimental: Male albino Wistar rats weighing 250-300g were used. The animals, anaesthetized with Nembutal Na (30 mg/kg i.p.), were stereotactically injected in their left ventral hippocampus one microliter of 0.55 M FeCl3 solution (AP=-3.2; L=5.0.; H=5.5 Pelhgrino and Cushman, 1971). Ten minutes following injection, recording electrodes were implanted: in both ventral hippocampi, two millimiters below the FeCl3 injection site (bipolars), bilaterally on the frontoparietal cortex (monopolars). recording of cerebral bioelectric activity, carried out with an EEG OTE-Biomedica PF 14e recorder, began about one hour following FeCl3 injection and lasted more than three hours on end.The epilepsy degree was assessed by calculating for each animal the number and duration in seconds of the seizures at 15-minute intervals during the whole recording span both in the hyppocampus where the injection had been performed and in the contralateral cortex. Moreover, an "index of epileptization" was calculated as the mean product of seizure number times the duration of the seizures in each time interval. […]
The results thus obtained show the antiepileptic activity of the compound assessed by examining the whole phenomenon as it evolves in time via the measure (carried out with the trapezoidal rule) of the area under the curve wherein the average number of seizures and their duration is plotted versus time.

[5] = system: Sodium penicillin G-induced epilepsy; assay: Sodium penicillin G-induced epilepsy (EEG); type: in vivo, Male albino Wistar rats; conditions: rats
Description: In this regard, see: Holmes, O. arid Lockton, J.W.: "Locally generated interictal epilectic spikes in the cortex cerebri of the rat". J.Physiol. (Lond.), 308 (1980) 75-76 P. Lokcton, J.W. and Holmes, O: "Site of penicillin-induced epilepsy in the cortex cerebri of the rat'. Brain research, 190 (1980) 301-304. Reichental, E. and Hocherman, S. : "The critical cortical area for development of penicillin-induced epilepsy". Electroenceph. Clin. Neurophysiol., 42 (1977) 248-251).
Male albino Wistar rats weighing 260-280 g were used in this test. Epilepsy was induced in these rats through the application of 5 mg of sodium penicillin G, power (Carlo Erba) on the left cortex cerebri. EEG recording (electroencephalograph OTE-Biomedica PF 14e) was carried out with cortical electrodes. Following a 15 minute recording period (basal), the animals were orally administered 250 mg/10 ml/kg of ST 505 suspended in 10% gum arabic. The controls were administered 10 ml/kg of 10% gum arabic.
The following parameters were taken into account: • a) numper of peaks of the EEG tracing in subsequent 15 minu te intervals, in an overall 5-hour recording period; and • b) number of fits with attendant average duration for each interval.
With regard to parameter a), the area under the curve was calculated wherein the number of peaks at different times and its accumulation function were plotted versus the observation time, thus obtaining five descriptive parameters: one which gives the measure (area) of the totale amount of epilepsy and four (shape indexes) describing the trends of the peaks during the time interval (five hours) under examination. These shape indexes were the percentile values at 50%, 60%, 70% and 800/0 of the accumulation function of the area versus time and represented, therefore, for each rat, a measure of the distribution of the epileptic fits in time.
The fits were studied with the same model as that utilized for the peaks.

[6] = system: cardiazol-induced convulsions; assay: Cardiazol-induced convulsions test in rats; type: in vivo, male albino Wistar rats; conditions: oral, 60 minutes before cardiazole 70 mg/10ml/kg i.p.
Experimental: The compound was also orally administered to male albino Wistar rats weighing 170-200 g (see table 3), at the dose equimolar to 100 mg 3-APS 60 minutes before cardiazole administration (70 mg/10ml/kg i.p.).

[7] = oral, 100 mg/kg eq. 3 APS, 60 minutes before convulsant, mice (Table 2)
[8] = oral, 200 mg/kg eq. 3 APS, 60 minutes before convulsant, mice (Table 2)
[9] = 400 mg/10 ml/kg i.p., mice, versus control
[10] = 200, 400 and 800 mg/10 ml/kg i.p., mice
[11] = oral, 100 mg/kg eq. 3 APS, 60 minutes before convulsant, mice (Table 3)
[12] = oral, 200 mg/kg eq. 3-APS, versus control
[13] = oral, 200 mg/kg eq. 3 APS, 60 minutes before convulsant, mice (Table 3)
[14] = oral, 100 mg/kg eq. 3-APS, versus control

SMILES: NS(=O)(=O)CCCN=C(c1ccccc1)c1ccccc1O [ST 512, 3-[(a-phenyl)-2-hydroxybenzylidene] amino propanesulfonamide]
- death rate (auricular electroshock; dose 200 (unit not given)): 3/10
- death rate (auricular electroshock; dose 400 (unit not given)): 4/10
- tolerability (male albino Swiss mice): well tolerated
- Picrotoxin % Death rate [1, 7]: 40%
- Picrotoxin Strong % Conv. [1, 7]: 100%
- Picrotoxin % Death rate [1, 8]: 50%
- Picrotoxin Strong % Conv. [1, 8]: 100%
- Strychnine % Death rate [2, 7]: 80%
- Strychnine Strong % Conv. [2, 7]: 90%
- Strychnine % Death rate [2, 8]: 90%
- Strychnine Strong % Conv. [2, 8]: 80%
- Cardiazol % Death rate [3, 7]: 50%
- Cardiazol Strong % Conv. [3, 7]: 100%
- Cardiazol % Death rate [3, 8]: 60%
- Cardiazol Strong % Conv. [3, 8]: 100%
- reduction of cardiazol-induced death rate ([3]; oral, dose equimolar to 100 mg/10ml/kg of 3-APS, mice): 20%
- reduction of cardiazol-induced death rate ([3]; oral, dose equimolar to 200 mg/10ml/kg of 3-APS, mice): 10%
- Bicuculline % Death rate [4, 7]: 100%
- Bicuculline Strong % Conv. [4, 7]: 90%
- Bicuculline % Death rate [4, 8]: 100%
- Bicuculline Strong % Conv. [4, 8]: 100%

SMILES: NCCCS(=O)(=O)O [3-APS, 3-aminopropanesulfonic acid]
- Picrotoxin % Death rate ([1]; 200 mg/kg i.p., mice): 20%
- Picrotoxin Strong % Conv. ([1]; 200 mg/kg i.p., mice): 100%
- picrotoxin-induced first convulsion latency time [1, 9]: significantly increased
- Picrotoxin % Death rate ([1]; 400 mg/kg i.p., mice): 30%
- Picrotoxin Strong % Conv. ([1]; 400 mg/kg i.p., mice): 100%
- Picrotoxin % Death rate ([1]; 800 mg/kg i.p., mice): 70%
- Picrotoxin Strong % Conv. ([1]; 800 mg/kg i.p., mice): 30%
- picrotoxin-induced death [1, 10]: did not preserve animals
- Strychnine % Death rate ([2]; 200 mg/kg i.p., mice): 90%
- Strychnine Strong % Conv. ([2]; 200 mg/kg i.p., mice): 100%
- Strychnine % Death rate ([2]; 400 mg/kg i.p., mice): 100%
- Strychnine Strong % Conv. ([2]; 400 mg/kg i.p., mice): 100%
- Strychnine % Death rate ([2]; 800 mg/kg i.p., mice): 90%
- Strychnine Strong % Conv. ([2]; 800 mg/kg i.p., mice): 100%
- strychnine-induced death [2, 10]: did not preserve animals
- Cardiazol % Death rate ([3]; 200 mg/kg i.p., mice): 50%
- Cardiazol Strong % Conv. ([3]; 200 mg/kg i.p., mice): 100%
- Cardiazol % Death rate ([3]; 400 mg/kg i.p., mice): 90%
- Cardiazol Strong % Conv. ([3]; 400 mg/kg i.p., mice): 100%
- Cardiazol % Death rate ([3]; 800 mg/kg i.p., mice): 60%
- Cardiazol Strong % Conv. ([3]; 800 mg/kg i.p., mice): 100%
- cardiazol-induced death [3, 10]: did not preserve animals
- Bicuculline % Death rate ([4]; 200 mg/kg i.p., mice): 100%
- Bicuculline Strong % Conv. ([4]; 200 mg/kg i.p., mice): 100%
- latency time of bicuculline-induced death [4, 9]: significantly increased
- Bicuculline % Death rate ([4]; 400 mg/kg i.p., mice): 75%
- Bicuculline Strong % Conv. ([4]; 400 mg/kg i.p., mice, 8 animals per group): 100* %
- Bicuculline % Death rate ([4]; 800 mg/kg i.p., mice): 40%
- Bicuculline Strong % Conv. ([4]; 800 mg/kg i.p., mice): 70%
- bicuculline-induced first convulsion latency time ([4]; 800 mg/kg i.p., mice, versus control): significantly increased
- bicuculline-induced death [4, 10]: did not preserve animals

SMILES: NS(=O)(=O)CCCN=C(c1ccc(Cl)cc1)c1cc(F)ccc1O [ST 505, 3-[[a-(p-chlorophenyl)-5-fluoro-2-hydroxybenzylidene]amino]propanesulfonamide]
- death rate (auricular electroshock; dose 200 (unit not given)): 4/10
- death rate (auricular electroshock; dose 400 (unit not given)): 5/10
- area under the curve of average number of seizures and their duration versus time, compared with controls (FeCl3-induced epilepsy): statistically significant difference
- area of the peaks ([5]; 250 mg/10 ml/kg oral, versus controls, Mann Whitney's U test): significantly decreased
- Peak area ([5]; MEAN (S.E.), 250 mg/kg oral, 5-hour EEG recording): 52.9 (5.87)**
- Ist shape index ([5]; MEAN (S.E.), 250 mg/kg oral, percentile 50% of accumulation function): 8.5 (1.0)**
- 2nd shape index ([5]; MEAN (S.E.), 250 mg/kg oral, percentile 60% of accumulation function): 9.8 (1.2)
- 3rd shape index ([5]; MEAN (S.E.), 250 mg/kg oral, percentile 70% of accumulation function): 11.8 (1.4)
- 4th shape index ([5]; MEAN (S.E.), 250 mg/kg oral, percentile 80% of accumulation function): 13.8 (1.4)
- Cardiazol % Death rate ([6]; RAT, 100 mg/kg eq. 3 APS): 60%
- Cardiazol Strong % Conv. ([6]; RAT, 100 mg/kg eq. 3 APS): 60%
- death rate reduction ([6]; Wistar rats, dose equimolar to 100 mg 3-APS): 30%
- first convulsion latency time ([6]; Wistar rats, dose equimolar to 100 mg 3-APS, versus control): significant increase
- tolerability (male albino Swiss mice): well tolerated
- picrotoxin response ([1]; oral, 100 mg/kg eq. 3-APS): did not change
- Picrotoxin % Death rate [1, 11]: 90%
- Picrotoxin Strong % Conv. [1, 11]: 100%
- latency time of picrotoxin-induced first convulsion [1, 12]: increased
- Picrotoxin % Death rate [1, 13]: 90%
- Picrotoxin Strong % Conv. [1, 13]: 100%
- reduction of strychnine-induced death rate ([2]; oral, 100 mg/kg eq. 3-APS): 20%
- Strychnine % Death rate [2, 11]: 30%
- Strychnine Strong % Conv. [2, 11]: 60%
- strychnine-induced convulsions and death ([2]; oral, 200 mg/kg eq. 3-APS): preserved all the animals
- Strychnine % Death rate [2, 13]: 0%
- Strychnine Strong % Conv. [2, 13]: 0%
- cardiazole response ([3]; oral, 100 mg/kg eq. 3-APS): did not change
- Cardiazol % Death rate [3, 11]: 90%
- Cardiazol Strong % Conv. [3, 11]: 90%
- latency time of cardiazole-induced first convulsion [3, 12]: increased
- Cardiazol % Death rate [3, 13]: 40%
- Cardiazol Strong % Conv. [3, 13]: 80%
- reduction of bicuculline-induced death rate ([4]; oral, 100 mg/kg eq. 3-APS): 20%
- latency time of the bicuculline-induced death [4, 14]: significantly increased
- latency time of the bicuculline-induced first convulsion [4, 14]: significantly increased
- Bicuculline % Death rate [4, 11]: 80%
- Bicuculline Strong % Conv. [4, 11]: 100%
- latency time of bicuculline-induced death [4, 12]: increased
- latency time of bicuculline-induced first convulsion [4, 12]: increased
- Bicuculline % Death rate [4, 13]: 80%
- Bicuculline Strong % Conv. [4, 13]: 100%
